Structures are written as SMILES.

Assay [1] concerns Staphylococcus aureus. In words: Staphylococcus aureus host cell invasion assay in HUVEC, flow cytometry. It is filed as cell-based. On the procedure:
In one embodiment, human umbilical vein endothelial cells (HUVEC, Life Technologies) are cultured in M200 medium supplemented with LSGS. RAW 264.7 cells (American Type Culture Collection, ATCC, Manassas, Va.) are cultured in RPMI supplemented with 10% FBS and L-glutamine. All cell types are maintained at 5% CO2, 37° C., in 75 cm^2 vented cap flasks (Thermo-Fisher). For assays, cultured cells are plated at 1×10^5 cells/ml in 35 mm culture dishes coated with Attachment Factor. The next day, cells are pretreated in culture medium containing the vehicle control or ML 141. For compound delivery, ML 141 first is suspended into DMSO or into PEG at a concentration of 5 mM. The 5 mM solution is diluted to 1 mM in the solvent and then diluted to the final concentration for each experiment in either serum-containing or serum-free medium. For vehicle control treatment, the same volume of PEG or DMSO as that of ML 141 is added to medium. The following day, the invasion assay is performed. For the shorter duration experiments, compound is added on the same day as the invasion assay, 1 hour prior to bacteria.
In another embodiment, HUVEC (Millipore, Billerica, Mass.) are cultured in EndoGRO LS Complete Media (Millipore) and are maintained at 5% CO2, 37° C., in 75 cm^2 vented cap flasks (Thermo-Fisher). For the invasion assay, cultured cells are plated at 1×10^4 cells/ml in 96-well culture dishes coated with Attachment Factor. The next day, cells are pretreated in culture medium containing the vehicle control, ML 141, or ML 141 structural analog. For compound delivery, ML 141 and structural analogs first are suspended into PEG at a concentration of 5 mM. The 5 mM solution is diluted to 1 mM in the solvent and then is diluted to the final concentration for each experiment in serum containing medium. For vehicle control treatment, the same volume of PEG as that of ML 141 or of ML 141 structural analog is added to the medium. The following day, the invasion assay is performed. Bacteria are added directly to medium containing vehicle control, ML 141, or the ML 141 structural analog.
Two days prior to the assay, TSB is inoculated with S. aureus (American Type Culture Collection #29213) and incubated overnight (225 rpm, 37° C.). Bacteria are subcultured the next day into fresh TSB. On the day of the assay, bacteria are pelleted (10000×g, 37° C., 3 min), are washed in saline, are pelleted as above, are resuspended in saline, then fluorescently labeled by incubation with rabbit anti-mouse IgG Alexa Fluor 488 (final concentration 8 μg/ml, RT, 20 min). Protein A, a S. aureus cell surface protein, avidly binds IgG thereby labeling the bacteria. Labeled bacteria are washed twice as above and are resuspended to 3×10^8 CFU/ml in saline. Host cells are incubated with the bacteria for 1 hour (1.2×10^8 CFU/ml for same-day recovery, 5×10^6 for recovery after 48 hours, 1.4×10^7 CFU/ml; 5% CO2, 37° C.). Following infection, extracellular bacteria are removed by extensive washes with PBS and incubation of the host cells with antimicrobials that have limited mammalian membrane permeability (lysostaphin, 20 μg/ml and gentamicin, 50 μg/ml; 45 min for same-day recovery studies, 48 hours for 2-day recovery studies; 5% CO2, 37° C.). To detect the level of infection using flow cytometry, cells that have been infected with fluorescently-labeled bacteria are washed extensively with PBS, lifted from 96-well plate by incubation with trypsin, washed extensively in FACS buffer (2% BSA/0.1% sodium azide/PBS), fixed (FACS buffer containing 0.74% formaldehyde), and are counted using an Accuri flow cytometer (BD, Franklin Lakes, N.J.). They are also lifted from culture dishes using cell scrapers, pelleted, fixed (1% BSA/0.74% formaldehyde/PBS), and are counted using an Accuri flow cytometer. For enumeration of the infecting bacteria, intracellular bacteria are released from host cells using 1% saponin/PBS (20 min, 5% CO2, 37° C.) and serial dilutions are plated on TSA (16 hours, 37° C.). […]
On the technique in general: A flow cytometer gives signals particle by particle.

In assay [2] the test system is Staphylococcus aureus. In words: Assessment of bactericidal activity (DMEM, 10% fetal bovine serum). It counts as cell-based. The following applies: 3.2 × 10^6 CFU S. aureus, 1 h in DMEM with 10% fetal bovine serum; head prints 20 mM.
The next assay deals with actin stress fibers. Put plainly: Actin stress fiber depolymerization in HUVEC during S. aureus infection. It counts as cell-based, human. The following applies: 18-20 h pretreatment, S. aureus 1 h. On the procedure:
FIG. 8A is an image depicting ML 141 limiting actin stress fiber depolymerization during infection. Human umbilical vein endothelial cells (HUVEC) were incubated with ML 141 or with the vehicle control polyethylene glycol (PEG) 18-20 h prior to infection with Staphylococcus aureus (1 h). Actin was detected using Alexa Fluor 488 phalloidin. Arrows indicate intact actin stress fibers. Arrowhead indicates cell lacking actin stress fibers. 100 cells/treatment were evaluated from randomly selected fields. Data are presented as the % of cells in which actin stress fibers were not detected. Scale bar is 50 μm.
FIG. 8B is an image depicting RSM 06 limiting actin stress fiber depolymerization during infection. Human umbilical vein endothelial cells (HUVEC) were incubated with RSM 06 or with the vehicle control polyethylene glycol (PEG) 18-20 h prior to infection with Staphylococcus aureus (1 h). Actin was detected using Alexa Fluor 488 phalloidin. 200 cells/treatment were evaluated from randomly selected fields. Data are presented as the % of cells in which actin stress fibers were not detected. Scale bar is 50 μm.
FIG. 8C is an image depicting RSM 16 limiting actin stress fiber depolymerization during infection. Human umbilical vein endothelial cells (HUVEC) were incubated with RSM 16 or with the vehicle control polyethylene glycol (PEG) 18-20 h prior to infection with Staphylococcus aureus (1 h). Actin was detected using Alexa Fluor 488 phalloidin. 200 cells/treatment were evaluated from randomly selected fields. Data are presented as the % of cells in which actin stress fibers were not detected. Scale bar is 50 μm.
HUVEC are plated at 1×10^5 cells/ml into 35 mm glass-bottom dishes (MatTek, Ashland, Mass.) are coated with Attachment Factor, are pretreated, and are infected (1.2×10^8 CFU) as described above. […] Alexa 488 is excited by the 488 nanommeter Ar laser line and is detected using a 505-530 nanometer bandpass filter. […] Maximum pixel projections from the Z-stacks are generated and are analyzed for actin morphology.

With `COc1ccc(C2CC(c3ccccc3)=NN2c2ccc(S(N)(=O)=O)cc2)cc1` (stereo not shown) [ML 141, 4-[3-(4-methoxyphenyl)-5-phenyl-3,4-dihydropyrazol-2-yl]benzenesulfonamide], the decrease of invasion result in the assay with Staphylococcus aureus [1] (ML 141 10.0 μM in PEG, 18 hours, HUVEC infected 1 hour) is recorded as “more than 80%”. The inhibition – broadly, the share of the control response that was lost under treatment – at 10 µM in the assay on Staphylococcus aureus [1] (Staphylococcus aureus, HUVEC, 18 h, read-out: inhibition of invasion) was about 50%. Further, in the assay with Staphylococcus aureus [2], the “CFU/mL (×10^9 ± SEM), Compound” value is given as 0.9 ± 0.09 ×10^9 CFU/mL. Also, the “depolymerization of actin stress fibers during infection” value in the assay on actin stress fibers is “remained intact”.
